# B1: star-like poly(HMPA)—RNase A conjugate (conjugate, UniProt P61823 27-150, looked up)
# Ribonuclease pancreatic: KETAAAKFERQHMDSSTSAASSSNYCNQMMKSRNLTKDRCKPVNTFVHESLADVQAVCSQKNVACKNGQTNCYQSYSTMSITDCRETGSSKYPNCAYKTTQANKHIIVACEGNPYVPVHFDASV
# modifications: star-like poly(HPMA) polymer conjugate
# Experiments:
# [1] = system: ConA-stimulated mouse T-splenocytes; test: In vitro cytotoxicity, [3H]thymidine incorporation, ConA-stimulated mouse T-splenocytes; type: cell-based; details: Splenocyte, 50% decrease in proliferation
# Experimental: (§1) In vitro cytotoxicity tests were performed by a standard method on ConA-stimulated and nonstimulated mouse T-splenocytes and on a tumour line of mouse T-cell lymphom EL-4. Cytotoxicity was followed by a change of incorporation of [^3H]thymidine into cells incubated in a medium containing the tested sample in various concentrations. The cytotoxicity was expressed by the IC50 factor (the substance concentration at which a 50% decrease in proliferation of tested cells is observed).
# [2] = system: mouse T-cell lymphom EL-4; test: In vitro cytotoxicity, [3H]thymidine incorporation, EL-4 tumour line; type: cell-based; details: mouse T-cell lymphoma EL-4 line, 50% decrease in proliferation
# Experimental: as §1
# [3] = clinical testing; cumulative dose reached 1680 mg/m^2; cited from earlier work
# human melanoma = test: Treatment of human melanoma in nu-nu mice; type: in vivo; details: compared with the conjugate from ONp or Su reactive polymer, FIG. 3
# Text: The properties of the conjugate were compared with those of the conjugate prepared from the classic ONp reactive polymer. […] The synthesis using the reactive polymer according to the invention proceeded faster, a polymer with a smaller content of reactive groups (2 mol %) could be used for obtaining the same product, and in the resulting conjugate no unmodified protein or unreacted polymer was present (the conversion of the reaction of reactive groups was higher).
# A star-like poly(HMPA)—RNase A conjugate was prepared from a semitelechelic polymer prepared according to Example 3 by the same procedure as in the synthesis starting from poly(HPMA) with succinimidyl end group. The star conjugate was purified from low-molecular-weight materials by preparative gel chromatography (Sephacryl S300, column 26×600 mm, flow-rate 12.5 ml/h, distilled water). After concentration using an ultrafiltration membrane (PM 30), the product was lyophilized. Comparing the conjugate syntheses using polymers with OSu and TT reactive groups, the latter led to higher reaction yields and much smaller amounts of unreacted (hydrolyzed) polymer in the reaction mixture.
molecule,measurement,setting,value
"COc1cccc2c1C(=O)c1c(O)c3c(c(O)c1C2=O)C[C@@](O)(C(=O)CO)C[C@@H]3O[C@H]1C[C@H](N)[C@H](O)[C@H](C)O1 [Dox, doxorubicin]",IC50,[1],0.07 µg/mL
same,IC50,[2],0.03 µg/mL
N-(2-hydroxypropyl)methacrylamide copolymer doxorubicin [PK1],changes in cardial functions,[3],no serious changes in cardial functions were observed
B1,biological properties / in vivo activity in the treatment of human melanoma,human melanoma,active under in vivo conditions equally well as the conjugate prepared from reactive Su ester
